Results from patent US20250009739A1, “METHOD OF TREATING A SKIN DISORDER” (PHAMRI Norden AB, priority 2021, published 2025).

Experiments:
ENaC [1] = settings: cited from earlier work
NCX = NCX (Homo sapiens, UniProt P32418); settings: cited from earlier work
[2] = human oral dosing 10 mg, adults; cited from earlier work
CXCL1 = CXCL1 expression in TNFα-stimulated primary keratinocytes (Luminex on supernatant); format: cell-based, human; settings: CXCL1, IL1a and TNFα in TNFα-stimulated keratinocytes; concentration where ENaC, NCX1 and NHE1 were predicted to be targeted
Experimental: Primary keratinocytes were stimulated with TNFα (5 ng/ml) for 24 hours and expression of pro-inflammatory cytokines involved in inflammatory skin disease was analyzed with benzamil as inhibitor and compared to inhibitors with different affinity to ENaC/NCX1/NHE1 (amiloride), ENaC but not NCX1 and NHE1 (Camostat mesilate), NCX1 but not ENaC or NHE1 (KB-R7943) or NHE but not ENaC or NCX1 (zoniporide).
Primary human keratinocytes were thawed according to manufacturer's instructions, washed in growth medium (GM) and viability assessed via Tryphan blue. Cells were incubated at 37° C. with 5% CO2. After confluence, a stock cell solution of 1.5×10^5 cells/ml was prepared in GM. 200 μL of the cell suspension was added to each well of respective 96 well plates for a total of 3×10^4 cells/well. Cells were incubated at 37° C. with 5% CO2 overnight for adherence. After overnight incubation, cell culture media was removed from each well and 100 μL of fresh GM was added to each well. Appropriate concentrations of inhibitor compound, vehicle and TNFα was prepared in GM of a final volume of 3 ml. […]
100 μl of each treatment was added to appropriate wells. […] 24 hours post TNFα stimulation, the fluorescence of each well was read at 544/590 nm for cell viability. […] The inflammatory cytokines TNFα, CXCL1 and IL1a in the cell culture supernatants were analysed by Luiminex. […]

[3] = test system: Primary human keratinocytes; experiment: Proliferation / cell viability (alamar blue) of TNFα-stimulated keratinocytes; format: cell-based; settings: low-level inflamed keratinocyte conditions (TNFα 5 ng/ml, 24 hours)
Experimental: Primary human keratinocytes were thawed according to manufacturer's instructions, washed in growth medium (GM) and viability assessed via Tryphan blue. Cells were incubated at 37° C. with 5% CO2. After confluence, a stock cell solution of 1.5×10^5 cells/ml was prepared in GM. 200 μL of the cell suspension was added to each well of respective 96 well plates for a total of 3×10^4 cells/well. Cells were incubated at 37° C. with 5% CO2 overnight for adherence. After overnight incubation, cell culture media was removed from each well and 100 μL of fresh GM was added to each well. Appropriate concentrations of inhibitor compound, vehicle and TNFα was prepared in GM of a final volume of 3 ml. Concentrations of non-benzamil inhibitors were chosen to be 0.1×, 1× and 10× the IC50 for each primary target. […] Concentration of TNF alpha was selected to recapitulate a low level of pro-inflammatory cytokine stimulation.
100 μl of each treatment was added to appropriate wells. Samples were incubated for 24 hours. 20 hours post TNFα stimulation, 20 μL of alamar blue was added for each well. Cells were incubated for 4 hours at 37° C. 24 hours post TNFα stimulation, the fluorescence of each well was read at 544/590 nm for cell viability. […] The inflammatory cytokines TNFα, CXCL1 and IL1a in the cell culture supernatants were analysed by Luiminex. […]

ENaC [4] = settings: cited from earlier work; remark: listed apart in the source

## CN(C)C(=O)COC(=O)Cc1ccc(OC(=O)c2ccc(NC(=N)N)cc2)cc1 [Camostat Mesilate, Camostat mesilate]
ENaC [1]
  IC50: 50 nM

## N=C(N)SCCc1ccc(OCc2ccc([N+](=O)[O-])cc2)cc1 [KB-R7943]
NCX
  IC50: 5000 to 10000 nM

## N=C(N)NC(=O)c1nc(Cl)c(N)nc1N [amiloride]
ENaC [1]
  IC50: 100 nM
[2]
  serum concentration: 20.6 ng/mL

## NC(=NCc1ccccc1)NC(=O)c1nc(Cl)c(N)nc1N [benzamil]
CXCL1
  efficacious concentration for reducing cytokine expression: above 1 uM
[3]; FIG. 6
  proliferation: does not reduce proliferation
[3]; FIG. 6, listed as Benzamil
  proliferation: did not reduce proliferation

## NC(=Nc1ccccc1)NC(=O)c1nc(Cl)c(N)nc1N [phenamil]
ENaC [4]
  in vivo efficacy specifically on ENaC relative to amiloride: equivalent to amiloride
